Data reported in ChEMBL document CHEMBL3044942, “Unexpected plant-systemic insecticidal properties of alkylene-tethered bis-imidacloprid derivatives” (J Pestic Sci, 2010).
Active and inactive are the calls of the source. The rule behind the calls is not given here.

Assays:
Myzus persicae [1] = test: Insecticidal activity against Myzus persicae (green peach aphid) in compound treated chinese cabbage leaves assessed as mortality after foliar dipping at 10 mg/l at 25 degC measured after 120 hr; type: functional
Spodoptera litura [2] = test: Insecticidal activity against Spodoptera litura in compound treated chinese cabbage leaves assessed as mortality after foliar dipping at 10 mg/l at 25 degC measured after 120 hr; type: functional
Spodoptera litura [3] = test: Insecticidal activity against Spodoptera litura in compound treated chinese cabbage leaves assessed as mortality after foliar dipping at 100 mg/l at 25 degC measured after 120 hr; type: functional
[4] = Octanol-water partition coefficient, log P of the compound; type: physicochemical
Myzus persicae [5] = test: Insecticidal activity against Myzus persicae (green peach aphid) in compound treated chinese cabbage leaves assessed as mortality after foliar dipping at 100 mg/l at 25 degC measured after 120 hr; type: functional
Myzus persicae [6] = test: Insecticidal activity against Myzus persicae (green peach aphid) assessed as mortality after soil treatment at 25 degC measured after 11th day of infestation; type: functional, organism-based
Myzus persicae [7] = test: Insecticidal activity against Myzus persicae (green peach aphid) in compound treated chinese cabbage leaves assessed as mortality at 10 mg/l measured on day 3 after foliar treatment by residual insecticidal activity assay; type: functional, organism-based
Nilaparvata lugens [8] = test: Insecticidal activity against Nilaparvata lugens (brown plant hoppers) in rice seedlings root dipped in compound assessed as mortality at 100 mg/l measured after 14 days of drench application by systemic insecticidal activity assay; type: functional, organism-based
Plutella xylostella [9] = test: Insecticidal activity against Plutella xylostella (diamondback moth) assessed as mortality after soil treatment on third day of infestation; type: functional, organism-based
Nilaparvata lugens [10] = test: Insecticidal activity against Nilaparvata lugens (brown planthoppers) in rice seedlings root dipped in compound assessed as mortality at 100 mg/l measured after 3 days of drench application by systemic insecticidal activity assay; type: functional, organism-based
Nilaparvata lugens [11] = test: Insecticidal activity against Nilaparvata lugens (brown planthoppers) in rice seedlings root dipped in compound assessed as mortality at 100 mg/l measured after 7 days of drench application by systemic insecticidal activity assay; type: functional, organism-based
Plutella xylostella [12] = test: Insecticidal activity against Plutella xylostella (diamondback moth) in compound treated cabbage leaves assessed as mortality at 10 mg/l measured on day 3 after foliar treatment by residual insecticidal activity assay; type: functional, organism-based
Nilaparvata lugens [13] = test: Insecticidal activity against Nilaparvata lugens (brown planthopper) in rice seedlings assessed as mortality measured on day 3 after foliar treatment by residual insecticidal activity assay; type: functional, organism-based

| SMILES | mortality at 10 µg/mL (Myzus persicae [1]) [%] | mortality at 10 µg/mL (Spodoptera litura [2]) [%] | mortality at 100 µg/mL (Spodoptera litura [3]) [%] | logP ([4]; read-out: logP) | mortality at 100 µg/mL (Myzus persicae [5]) [%] | logP [4] | inhibition (Myzus persicae [6]) | Activity (Myzus persicae [7]) | inhibition (Nilaparvata lugens [8]) | inhibition (Plutella xylostella [9]) | inhibition (Nilaparvata lugens [10]) | inhibition (Nilaparvata lugens [11]) | Activity (Plutella xylostella [12]) | Activity (Nilaparvata lugens [13]) |
| --- | --- | --- | --- | --- | --- | --- | --- | --- | --- | --- | --- | --- | --- | --- |
| O=[N+]([O-])/N=C1\N(CCN2CCN(Cc3ccc(Cl)nc3)/C2=N/[N+](=O)[O-])CCN1Cc1ccc(Cl)nc1 | 23 | 0 | 20 | 4.13 | 97 | – | – | – | – | – | – | – | – | – |
| O=[N+]([O-])/N=C1/N(Cc2ccc(Cl)nc2)CCN1Cc1cccc(CN2CCN(Cc3ccc(Cl)nc3)/C2=N/[N+](=O)[O-])c1 | 33 | 3 | 47 | 5.69 | 57 | – | – | – | – | – | – | – | – | – |
| O=[N+]([O-])/N=C1\N(Cc2ccc(CN3CCN(Cc4ccc(Cl)nc4)/C3=N/[N+](=O)[O-])cc2)CCN1Cc1ccc(Cl)nc1 | 97 | 3 | 47 | 5.69 | 97 | – | – | – | – | – | – | – | – | – |
| O=[N+]([O-])/N=C1\N(CCCCN2CCN(Cc3ccc(Cl)nc3)/C2=N/[N+](=O)[O-])CCN1Cc1ccc(Cl)nc1 | 0 | 7 | 57 | 4.56 | 7 | – | – | – | – | – | – | – | – | – |
| O=[N+]([O-])NC1=NCCN1Cc1ccc(Cl)nc1 [IMIDACLOPRID] | 100 | 17 | 97 | – | 100 | 1.88 | – | – | – | – | – | – | – | – |
| O=[N+]([O-])/N=C1\N(CCCCCCCCCCN2CCN(Cc3ccc(Cl)nc3)/C2=N/[N+](=O)[O-])CCN1Cc1ccc(Cl)nc1 | 27 | 0 | 27 | 5.76 | 43 | – | – | – | – | – | – | – | – | – |
| O=[N+]([O-])/N=C1\N(CCCCCCCN2CCN(Cc3ccc(Cl)nc3)/C2=N/[N+](=O)[O-])CCN1Cc1ccc(Cl)nc1 | 93 | 23 | 85 | 5.18 | 97 | – | Active | Active | Active | Active | Active | Active | Active | Active |
| O=[N+]([O-])/N=C1\N(CCCCCCN2CCN(Cc3ccc(Cl)nc3)/C2=N/[N+](=O)[O-])CCN1Cc1ccc(Cl)nc1 | 10 | 27 | 83 | 4.97 | 23 | – | – | Active | Active | – | Active | Active | Active | Active |
| O=[N+]([O-])/N=C1\N(CCCN2CCN(Cc3ccc(Cl)nc3)/C2=N/[N+](=O)[O-])CCN1Cc1ccc(Cl)nc1 | 13 | 13 | 80 | 4.35 | 27 | – | – | – | – | – | – | – | – | – |
| O=[N+]([O-])/N=C1\N(CCCCCN2CCN(Cc3ccc(Cl)nc3)/C2=N/[N+](=O)[O-])CCN1Cc1ccc(Cl)nc1 | 0 | 0 | 40 | 4.77 | 13 | – | – | – | – | – | – | – | – | – |
| O=[N+]([O-])/N=C1\N(CCCCCCCCCN2CCN(Cc3ccc(Cl)nc3)/C2=N/[N+](=O)[O-])CCN1Cc1ccc(Cl)nc1 | 77 | 3 | 57 | 5.57 | 93 | – | – | – | – | – | – | – | – | – |
| O=[N+]([O-])/N=C1\N(CCCCCCCCCCCCN2CCN(Cc3ccc(Cl)nc3)/C2=N/[N+](=O)[O-])CCN1Cc1ccc(Cl)nc1 | 19 | 0 | 0 | 6.14 | 50 | – | – | – | – | – | – | – | – | – |
| O=[N+]([O-])/N=C1\N(CCCCCCCCN2CCN(Cc3ccc(Cl)nc3)/C2=N/[N+](=O)[O-])CCN1Cc1ccc(Cl)nc1 | 83 | 27 | 80 | 5.37 | 97 | – | – | – | – | – | – | – | – | – |
